Measured values: US20230257415A1, “COMPOUNDS FOR TREATING CNS DISORDERS” (SAGE THERAPEUTICS, INC., priority 2019, published 2023)

What follows are molecules tested against GABAA receptor (assay: [35S]-TBPS binding assay, rat brain cortical membranes, in the presence of GABA). Settings: inhibition of 3 nM [35S]-TBPS binding, 5 mM GABA, 90 min, room temp.
Method: [35S]-t-Butylbicyclophosphorothionate (TBPS) binding assays using rat brain cortical membranes in the presence of 5 mM GABA has been described (Gee et al, J. Pharmacol. Exp. Ther. 1987, 241, 346-353; Hawkinson et al, Mol. Pharmacol. 1994, 46, 977-985; Lewin, A.H et al., Mol. Pharmacol. 1989, 35, 189-194).
Briefly, cortices are rapidly removed following decapitation of carbon dioxide-anesthetized Sprague-Dawley rats (200-250 g). The cortices are homogenized in 10 volumes of ice-cold 0.32 M sucrose using a glass/teflon homogenizer and centrifuged at 1500 x g for 10 min at 4° C. The resultant supernatants are centrifuged at 10,000 x g for 20 min at 4° C. to obtain the P2 pellets. The P2 pellets are resuspended in 200 mM NaCl/50 mM Na-K phosphate pH 7.4 buffer and centrifuged at 10,000 x g for 10 min at 4° C. This washing procedure is repeated twice and the pellets are resuspended in 10 volumes of buffer. Aliquots ([…]) of the membrane suspensions are incubated with 3 nM [^35S]-TBPS and […] aliquots of test drug dissolved in dimethyl sulfoxide (DMSO) (final 0.5%) in the presence of 5 mM GABA. The incubation is brought to a final volume of 1.0 mL with buffer. […] Following a 90 min incubation at room temp, the assays are terminated by filtration through glass fiber filters (Schleicher and Schuell No. 32) using a cell harvester (Brandel) and rinsed three times with ice-cold buffer. Filter bound radioactivity is measured by liquid scintillation spectrometry. Non-linear curve fitting of the overall data for each drug averaged for each concentration is done using Prism (GraphPad). […] The concentration of test compound producing 50% inhibition (IC50) of specific binding and the maximal extent of inhibition (Imax) are determined for the individual experiments with the same model used for the overall data and then the means ± SEM.s of the individual experiments are calculated.
Various compounds are or can be screened to determine their potential as modulators of [^35S]-TBPS binding in vitro. These assays are or can be performed in accordance with the above.

Compound | IC50
C[C@@H](Nc1ccc(C#N)cc1)[C@H]1CCC[C@H]2[C@@H]3CC[C@@H]4C[C@](C)(O)CC[C@@H]4C3CC[C@]12C (stereo partly drawn) [Example 51, 4-(((1R)-1-((1S,4aS,4bR,6aR,8R,10aS,12aS)-8-hydroxy-8,12a-dimethyloctadecahydrochrysen-1-yl)ethyl)amino)benzonitrile] | < 0.1 µM
CCC[C@@]1(O)CC[C@H]2[C@@H](CC[C@@H]3[C@@H]2CC[C@]2(C)[C@@H]([C@@H](C)Cn4nnnc4C)CCC[C@@H]32)C1 [Example 8, (2R,4aS,4bR,6aS,7R,10aS,10bR,12aS)-6a-methyl-7-((R)-1-(5-methyl-1H-tetrazol-1-yl)propan-2-yl)-2-propyloctadecahydrochrysen-2-ol] | 0.1 to 1 µM
C[C@@H](Cn1cc(C#N)cn1)[C@H]1CC[C@H]2[C@@H]3CC=C4CC[C@](C)(O)CC[C@]4(C)[C@H]3CC[C@]12C [Example 17, 1-((R)-2-((1R,3aS,3bS,8S,10aR,10bS,12aS)-8-hydroxy-8,10a,12a-trimethyl-1,2,3,3a,3b,4,6,7,8,9,10,10a,10b,11,12,12a-hexadecahydrocyclohepta[a]cyclopenta[f]naphthalen-1-yl)propyl)-1H-pyrazole-4-carbonitrile] | < 0.1 µM
CCC[C@@]1(O)CC[C@@]2(C)[C@@H](CC[C@@H]3[C@@H]2CC[C@]2(C)[C@@H]([C@@H](C)Cn4nnc(C)n4)CCC[C@@H]32)C1 [Example 9, (2R,4aS,4bS,6aS,7R,10aS,10bR,12aS)-4a,6a-dimethyl-7-((R)-1-(5-methyl-2H-tetrazol-2-yl)propan-2-yl)-2-propyloctadecahydrochrysen-2-ol] | 0.1 to 1 µM
Cn1nccc1C(=O)NC[C@H]1CCC[C@H]2[C@@H]3CC[C@@H]4C[C@](C)(O)CC[C@@H]4[C@H]3CC[C@]12C [Example 33, N-(((1S,4aS,4bR,6aR,8R,10aS,10bR,12aS)-8-hydroxy-8,12a-dimethyloctadecahydrochrysen-1-yl)methyl)-1-methyl-1H-pyrazole-5-carboxamide] | 0.1 to 1 µM
CN(C[C@H]1CCC[C@H]2[C@@H]3CC[C@@H]4C[C@](C)(O)CC[C@@H]4[C@H]3CC[C@]12C)S(=O)(=O)c1ccccc1 [Example 26, N-(((1S,4aS,4bR,6aR,8R,10aS,10bR,12aS)-8-hydroxy-8,12a-dimethyloctadecahydrochrysen-1-yl)methyl)-N-methylbenzenesulfonamide] | < 0.1 µM
C[C@H](Cn1cc(C#N)cn1)[C@H]1CC[C@H]2[C@@H]3CC=C4CC[C@](C)(O)CC[C@]4(C)[C@H]3CC[C@]12C [Example 18, 1-((S)-2-((1R,3aS,3bS,8S,10aR,10bS,12aS)-8-hydroxy-8,10a,12a-trimethyl-1,2,3,3a,3b,4,6,7,8,9,10,10a,10b,11,12,12a-hexadecahydrocyclohepta[a]cyclopenta[f]naphthalen-1-yl)propyl)-1H-pyrazole-4-carbonitrile] | < 0.1 µM
CCC[C@@]1(O)CC[C@H]2[C@@H](CC[C@@H]3[C@@H]2CC[C@]2(C)[C@@H]([C@H](C)Cn4nnnc4C)CCC[C@@H]32)C1 [Example 7, (2R,4aS,4bR,6aS,7R,10aS,10bR,12aS)-6a-methyl-7-((S)-1-(5-methyl-1H-tetrazol-1-yl)propan-2-yl)-2-propyloctadecahydrochrysen-2-ol] | ≥ 1 µM
CCOC[C@@]1(O)CC[C@@H]2C3CC[C@]4(C)[C@@H]([C@@H](C)NC(=O)c5ccc(C#N)cc5F)CCC[C@H]4[C@@H]3CC[C@@H]2C1 (stereo partly drawn) [Example 56] | 0.1 to 1 µM
COC[C@@]1(O)CC[C@H]2[C@H](CC[C@@H]3[C@@H]2CC[C@]2(C)[C@@H]([C@@H](C)Cn4cc(C#N)cn4)CCC[C@@H]32)C1 [Example 3, 1-((R)-2-((1R,4aS,4bR,6aR,8R,10aS,10bR,12aS)-8-hydroxy-8-(methoxymethyl)-12a-methyloctadecahydrochrysen-1-yl)propyl)-1H-pyrazole-4-carbonitrile] | < 0.1 µM
C[C@H](Cn1cc(C#N)cn1)[C@H]1CC[C@H]2[C@@H]3CC[C@@H]4C[C@](C)(O)CCC[C@@H]4[C@H]3CC[C@]12C [Example 22, 1-((S)-2-((1R,3aS,3bR,5aR,7R,10aS,10bR,12aS)-7-hydroxy-7,12a-dimethyloctadecahydrocyclohepta[a]cyclopenta[f]naphthalen-1-yl)propyl)-1H-pyrazole-4-carbonitrile] | < 0.1 µM
COC[C@@]1(O)CC[C@@H]2C3CC[C@]4(C)[C@@H]([C@@H](C)NC(=O)c5ccc(C#N)cc5)CCC[C@H]4[C@@H]3CC[C@@H]2C1 (stereo partly drawn) [Example 46, 4-cyano-N-((1R)-1-((1S,4aS,4bR,6aR,8R,10aS,12aS)-8-hydroxy-8-(methoxymethyl)-12a-methyloctadecahydrochrysen-1-yl)ethyl)benzamide] | 0.1 to 1 µM
C[C@@]1(O)CC[C@H]2[C@H](CC[C@@H]3[C@@H]2CC[C@]2(C)[C@@H](CNC(=O)c4cccc(C#N)c4)CCC[C@@H]32)C1 [Example 31, 3-cyano-N-(((1S,4aS,4bR,6aR,8R,10aS,10bR,12aS)-8-hydroxy-8,12a-dimethyloctadecahydrochrysen-1-yl)methyl)benzamide] | 0.1 to 1 µM
C[C@@H]1CC[C@H]([C@@H](C)Cn2cc(C#N)cn2)[C@@]2(C)CC[C@H]3[C@@H](CC[C@@H]4C[C@](C)(O)CC[C@@H]43)[C@H]12 [Example 11, 1-((R)-2-((1R,4R,4aS,4bR,6aR,8R,10aS,10bR,12aR)-8-hydroxy-4,8,12a-trimethyloctadecahydrochrysen-1-yl)propyl)-1H-pyrazole-4-carbonitrile] | < 0.1 µM
CCOC[C@@]1(O)CC[C@@H]2C3CC[C@]4(C)[C@@H]([C@H](C)NC(=O)c5ccc(F)cc5F)CCC[C@H]4[C@@H]3CC[C@@H]2C1 (stereo partly drawn) [Example 53, N-((1S)-1-((1S,4aS,4bR,6aR,8R,10aS,12aS)-8-(ethoxymethyl)-8-hydroxy-12a-methyloctadecahydrochrysen-1-yl)ethyl)-2,4-difluorobenzamide] | 0.1 to 1 µM
C[C@@]1(O)CC[C@H]2[C@H](CC[C@@H]3[C@@H]2CC[C@]2(C)[C@@H](CNC(=O)c4ccc(C#N)cc4)CCC[C@@H]32)C1 [Example 34, 4-cyano-N-(((1S,4aS,4bR,6aR,8R,10aS,10bR,12aS)-8-hydroxy-8,12a-dimethyloctadecahydrochrysen-1-yl)methyl)benzamide] | 0.1 to 1 µM
C[C@@]1(O)CC[C@H]2[C@H](CC[C@@H]3[C@@H]2CC[C@]2(C)[C@@H](CNC(=O)c4ccccn4)CCC[C@@H]32)C1 [Example 29, N-(((1S,4aS,4bR,6aR,8R,10aS,10bR,12aS)-8-hydroxy-8,12a-dimethyloctadecahydrochrysen-1-yl)methyl)picolinamide] | 0.1 to 1 µM
COC[C@@]1(O)CC[C@@H]2C3CC[C@]4(C)[C@@H]([C@@H](C)NC(=O)c5ccc(F)cc5)CCC[C@H]4[C@@H]3CC[C@@H]2C1 (stereo partly drawn) [Example 44, 4-fluoro-N-((1R)-1-((1S,4aS,4bR,6aR,8R,10aS,12aS)-8-hydroxy-8-(methoxymethyl)-12a-methyloctadecahydrochrysen-1-yl)ethyl)benzamide] | 0.1 to 1 µM
C[C@@H](Cn1cc(C#N)cn1)[C@H]1CC[C@H]2[C@@H]3CC[C@H]4CC[C@](C)(O)CC[C@]4(C)[C@H]3CC[C@]12C [Example 19, 1-((R)-2-((1R,3aS,3bR,5aS,8S,10aS,10bS,12aS)-8-hydroxy-8,10a,12a-trimethyloctadecahydrocyclohepta[a]cyclopenta[f]naphthalen-1-yl)propyl)-1H-pyrazole-4-carbonitrile] | < 0.1 µM
Cn1ccc(C(=O)NC[C@H]2CCC[C@H]3[C@@H]4CC[C@@H]5C[C@](C)(O)CC[C@@H]5[C@H]4CC[C@]23C)n1 [Example 27, N-(((1S,4aS,4bR,6aR,8R,10aS,10bR,12aS)-8-hydroxy-8,12a-dimethyloctadecahydrochrysen-1-yl)methyl)-1-methyl-1H-pyrazole-3-carboxamide] | 0.1 to 1 µM
CC[C@]12CC[C@H]3[C@@H](CC[C@@H]4C[C@](C)(O)CC[C@@H]43)[C@@H]1CCC[C@@H]2[C@H](C)NC(=O)c1ccc(C#N)cc1 [Example 54, 4-cyano-N-((S)-1-((1S,4aS,4bR,6aR,8R,10aS,10bR,12aS)-12a-ethyl-8-hydroxy-8-methyloctadecahydrochrysen-1-yl)ethyl)benzamide] | 0.1 to 1 µM
